# Reference: publication PMC6925736, “Development of a HPLC-MS/MS Method to Determine the 13 Elements of Semen Cuscutae and Application to a Pharmacokinetic Study in Rats” (Evidence-based Complementary and Alternative Medicine : eCAM, 2019)
# Legend:
# [1] = Stability of analytes in rat plasma QC samples under processing and storage conditions; assay type: in vitro ADME; conditions: n = 6; for Measured concentration, room temperature for 4h / Measured concentration, three freeze-thaw / Measured concentration, −70°C for 21 days: rat plasma; for Measured concentration, autosampler for 12h: treated rat plasma sample
# Procedure: The stability of the 13 analytes was evaluated by QC samples in different processing and storage conditions, including short-term stability (putting the analytes in ambient temperature for 4 h and storing analytes in autosampler for 12 h after treatment), long-term stability (storing the analytes at −70°C for 21 days) and subjecting analytes to three freeze-thaw cycles. All stability experiments were tested in six parallels with low, middle, and high concentrations.
# [2] = Pharmacokinetic study in rats after oral administration of Semen Cuscutae extract (HPLC-MS/MS of plasma); assay type: in vivo, Sprague–Dawley rats; conditions: oral Semen Cuscutae extract 13 g/kg; for plasma concentration after 15 minutes of intragastric administration / AUC(0-inf) / Cmax / AUC / T max / t 1/2: rat plasma; for plasma concentration after 15 minutes of intragastric administration: LLOQ 1 ng/mL; for AUC: read-out: AUC(0-tn)
# Procedure: 20 μL of methanol, 20 μL of IS (liquiritin, 200 ng/mL) and 20 μL of formic acid were added to 100 μL of plasma sample and then vortex-mixed. The mixture was extracted with 800 μL of acetonitrile by vortexing for 3 min. After centrifugation at 14000 rpm for 10 min, the supernatant was transferred to a clean glass tube and dried with nitrogen. The residue was reconstituted in 100 μL of methanol and then centrifuged at 14000 rpm for 10 min. 5 μL of supernatant was injected into the LC–MS/MS system for analysis.
# Six Sprague–Dawley rats (SPF, 200 ± 10 g, male) were purchased from HFK Laboratory Animal Technology Co., Ltd. The rats were housed in a standard laboratory condition (12 h dark-light cycle; temperature was 25°C ± 2°C and humidity was kept 50 ± 5%) and fed standard dry pellet diet and water for one week for acclimatization. Before the experiments, the rats were in fasting state for 12 h, with free access to water. The Semen Cuscutae extracts were dissolved in 0.5% carboxymethyl cellulose-sodium, prepared into suspension and gavage to the rats at a dose of 13 g/kg. Approximately 200 μL of rat blood samples was collected from the orbital venous plexus at 0, 0.03, 0.08, 0.17, 0.25, 0.5, 1, 2, 4, 6, 8, 10, 12, 24, 36, and 48 h after oral administration into 1.5 mL heparinized centrifuge tube. After centrifugation at 7000 rpm for 10 min immediately, the supernatant was collected into a new centrifuge tube and stored at −70°C until analysis.
# Pharmacokinetic parameters (Cmax, t1/2, Tmax, AUC(0-tn), and AUC(0-∞)) were obtained using the software “Drug and Statistics 3.0” (DAS 3.0) (Medical College of Wannan, China).
# [3] = male, Sprague-Dawley, rat, plasma, po, 13 g/kg, n = 6
Compound,"Measured concentration, room temperature for 4h ([1]; spiked 2 ng/mL) [ng/mL]","Measured concentration, three freeze-thaw ([1]; spiked 2 ng/mL) [ng/mL]","Measured concentration, −70°C for 21 days ([1]; spiked 2 ng/mL) [ng/mL]","Measured concentration, room temperature for 4h ([1]; spiked 25 ng/mL) [ng/mL]","Measured concentration, three freeze-thaw ([1]; spiked 25 ng/mL) [ng/mL]","Measured concentration, −70°C for 21 days ([1]; spiked 25 ng/mL) [ng/mL]","Measured concentration, room temperature for 4h ([1]; spiked 250 ng/mL) [ng/mL]","Measured concentration, three freeze-thaw ([1]; spiked 250 ng/mL) [ng/mL]","Measured concentration, −70°C for 21 days ([1]; spiked 250 ng/mL) [ng/mL]","Measured concentration, autosampler for 12h ([1]; spiked 2 ng/mL) [ng/mL]","Measured concentration, autosampler for 12h ([1]; spiked 25 ng/mL) [ng/mL]","Measured concentration, autosampler for 12h ([1]; spiked 250 ng/mL) [ng/mL]","AUC(0-inf) ([2]; male, Sprague-Dawley, n = 6) [ng·h/mL]","Cmax ([2]; male, Sprague-Dawley, n = 6) [ng/mL]","AUC ([2]; male, Sprague-Dawley, n = 6) [ng·h/mL]",T max ([2]; n = 6) [min],t 1/2 ([2]; n = 6) [min],"half-life [2, 3] [min]",further results
O=c1cc(-c2ccc(O)cc2)oc2cc(O)cc(O)c12 [Apigenin],2.2 ± 0.1,2.0 ± 0.1,2.1 ± 0.1,26.4 ± 1.2,25.7 ± 2.0,26.5 ± 1.3,249.3 ± 12.8,262.2 ± 16.0,257.8 ± 8.2,2.1 ± 0.2,25.0 ± 1.2,248.5 ± 4.9,–,–,–,–,–,–,plasma concentration after 15 minutes of intragastric administration [2]: lower than the LLOQ
O=c1c(O[C@@H]2O[C@H](CO)[C@@H](O)[C@H](O)[C@H]2O)c(-c2ccc(O)cc2)oc2cc(O)cc(O)c12 [Astragalin],2.1 ± 0.1,2.1 ± 0.1,2.0 ± 0.1,27.6 ± 1.2,27.2 ± 0.8,26.1 ± 1.2,248.1 ± 4.3,258.6 ± 8.5,251.5 ± 8.7,2.1 ± 0.1,27.3 ± 1.0,254.6 ± 4.6,441 ± 292,58.2 ± 28.5,370 ± 259,14.4 ± 5.4,27 ± 15.6,–,"T max ([2]; n = 6, listed as astragalin): less than 1 h; t 1/2 ([2]; n = 6, listed as astragalin): less than 1.5 h"
O=C(O)/C=C/c1ccc(O)c(O)c1 [Caffeic acid],2.1 ± 0.1,2.1 ± 0.1,2.0 ± 0.1,27.9 ± 1.0,27.0 ± 1.3,26.0 ± 0.6,272.5 ± 8.9,255.7 ± 3.9,250.2 ± 5.1,2.2 ± 0.1,28.1 ± 0.8,262.6 ± 7.4,652 ± 292,33.7 ± 8.43,613 ± 291,–,696 ± 55.2,> 450,"Tmax [2, 3]: 16.8 ± 2.4 min"
O=C(/C=C/c1ccc(O)c(O)c1)O[C@@H]1C[C@](O)(C(=O)O)C[C@@H](O)[C@H]1O [Chlorogenic acid],2.1 ± 0.1,2.1 ± 0.1,2.1 ± 0.1,27.7 ± 1.6,28.1 ± 1.0,26.6 ± 1.2,258.4 ± 15.7,268.6 ± 15.8,253.6 ± 7.7,2.1 ± 0.1,26.6 ± 1.6,253.1 ± 6.0,1000 ± 646,35.5 ± 7.3,995 ± 654,13.2 ± 3.6,61.2 ± 40.2,< 90,"T max ([2]; n = 6, listed as chlorogenic acid): less than 1 h"
O=C(/C=C/c1ccc(O)c(O)c1)O[C@H]1[C@H](O)C[C@](O)(C(=O)O)C[C@H]1O [Cryptochlorogenic acid],2.0 ± 0.1,2.0 ± 0.1,2.0 ± 0.1,27.0 ± 1.8,26.2 ± 0.3,25.5 ± 1.2,260.4 ± 3.3,248.9 ± 6.5,244.4 ± 7.4,2.1 ± 0.1,27.3 ± 0.6,251.2 ± 9.7,–,–,–,–,–,–,plasma concentration after 15 minutes of intragastric administration [2]: lower than the LLOQ
O=c1c(O[C@@H]2O[C@H](CO)[C@H](O)[C@H](O)[C@H]2O)c(-c2ccc(O)c(O)c2)oc2cc(O)cc(O)c12 [Hyperoside],2.0 ± 0.1,2.1 ± 0.1,1.9 ± 0.1,23.0 ± 1.2,26.2 ± 1.5,26.4 ± 1.8,244.4 ± 14.3,254.7 ± 9.7,256.4 ± 15.8,1.8 ± 0.1,23.6 ± 0.7,230.2 ± 13.1,754 ± 424,29.8 ± 12.8,684 ± 407,10.2 ± 4.2,21.6 ± 13.8,–,"T max ([2]; n = 6, listed as hyperoside): less than 1 h; t 1/2 ([2]; n = 6, listed as hyperoside): less than 1.5 h"
COc1cc(-c2oc3cc(O)cc(O)c3c(=O)c2O[C@@H]2O[C@H](CO)[C@@H](O)[C@H](O)[C@H]2O)ccc1O [Isorhamnetin-3-O-glucoside],2.0 ± 0.1,2.0 ± 0.1,2.1 ± 0.1,27.1 ± 1.3,27.1 ± 1.5,26.2 ± 0.6,259.9 ± 5.5,255.0 ± 5.7,249.5 ± 7.0,2.1 ± 0.1,26.9 ± 1.0,251.5 ± 5.4,257 ± 74.4,19.5 ± 9.8,172 ± 49.2,18 ± 0.6,73.8 ± 15.6,< 90,"T max ([2]; n = 6, listed as isorhamnetin-3-O-glucoside): less than 1 h"
